The source of these data is patent publication US9187410B2, “Process for isolating tigecycline and tigecycline made therefrom” (Hovione Inter Limited, priority 2009, dated 2015).

Common to all, as to type: physicochemical
A short description of data set [1]: Modulated differential scanning calorimetry (mDSC/DSC) of amorphous tigecycline. The conditions noted are these: unstressed sample; for glass transition temperature (Tg): mDSC, 25° C. to 300° C. at 3° C./min. As for the experimental part:
The DSC apparatus used was a DSC Q200 from TA Instruments, using the following settings: method—from 25° C. to 300° C. at 3° C./min; modulate +/−0.50° C. every 40 seconds. In addition to a higher Tg value, spray dried tigecycline also crystallizes and melts (after crossing the glass transition) at higher temperature than lyophilized tigecycline. By Tg we mean the critical temperature at which the material changes its behaviour from being ‘glassy’ to being ‘rubbery’. ‘Glassy’ in this context means hard and brittle (and therefore relatively easy to break), while ‘rubbery’ means elastic and flexible.

Data set [2] in a line: Dynamic Vapour Sorption (DVS) water uptake. The conditions noted are these: 25° C. As for the experimental part: We also have performed Dynamic Vapour Sorption studies (DVS) and these studies have shown that samples of tigecycline isolated by spray drying and by lyophilzation have distinctive hygroscopic behavior. […] The DVS conditions were as follows: temperature-25° C.; equilibrium criteria 0.00% w/w every 10 min; maximum equilibrium time—120 min; start RH—5%; maximum RH—95%; steps—10%. A vapor sorption analyzer (VTI-SGA 100) was used. […] The difference in the water uptake between the two forms increases with RH for most of the isotherm. By RH we mean relative humidity, the amount of water vapor that exists in a gaseous mixture of air and water. At 45% humidity, the spray dried sample takes up 2.9% w/w water and lyophilized sample 3.9% w/w water. At 95% humidity, the difference is even more evident: the spray dried form takes up 22.6% w/w water and the lyophilized form 24.5% w/w water. The form obtained by lyophilization is more hygroscopic than the form obtained by spray drying.

Data set [3] in a line: DSC after fast stress conditions (oven at 100° C. for 24 hours). The conditions noted are these: after 24 hours at 100° C. As for the experimental part:
The DSC apparatus used was a DSC Q200 from TA Instruments, using the following settings: method—from 25° C. to 300° C. at 3° C./min; modulate +/−0.50° C. every 40 seconds. Spray dried tigecycline and lyophilized tigecycline were submitted to fast stress conditions by placing the samples in an oven at 100° C. for 24 hours. The reversible and total flow DSC curves for the stressed samples were then measured and the results are presented in FIG. 4 and FIG. 5 respectively.

As for `CN(C)c1cc(NC(=O)CNC(C)(C)C)c(O)c2c1C[C@H]1C[C@H]3[C@H](N(C)C)C(O)=C(C(N)=O)C(=O)[C@@]3(O)C(O)=C1C2=O` [lyophilized tigecycline, tigecycline], the “glass transition temperature (Tg)” value in data set [1] (listed as lyophilized compound of formula [1]) is 126 °C. Further, the water uptake in data set [2] (45% humidity, listed as lyophilized sample) came to 3.9 % w/w; in data set [2] (95% humidity, listed as lyophilized form), 24.5 % w/w.

For `CN(C)c1cc(NC(=O)CNC(C)(C)C)c(O)c2c1C[C@H]1C[C@H]3[C@H](N(C)C)C(O)=C(C(N)=O)C(=O)[C@@]3(O)C(O)=C1C2=O` [spray dried tigecycline, tigecycline], in data set [3], the “crystallization temperature after stress” value is not below 154 °C and the “glass transition temperature after stress” value was not below 143 °C. In addition, the “glass transition temperature (Tg)” value in data set [1] (listed as amorphous compound of formula [1] obtained by spray drying) was 129 °C. In data set [1] (total heat flow DSC), this compound had a crystallisation temperature not below 146 °C. Further, the water uptake in data set [2] (45% humidity, listed as spray dried sample) was determined as 2.9 % w/w. Moreover, in data set [2] (95% humidity, listed as spray dried form), the water uptake was 22.6 % w/w.
